Read-outs that look alike come from different tables or passages of the source.
Tested on: anticoagulation level (International Normalized Ratio)
Conditions: for variation from low to high doses of warfarin / warfarin dose, low to high: across the first 24 measures
Method: Adult anticoagulation patients presenting to the practice site were informed of the study, and the opportunity to be a test subject. Subjects were required to complete a study entry data interview, provide informed consent, and present to the clinic once to twice weekly for INR evaluation. The control group and a second group (the algorithm group) of patients were provided warfarin alone as an anticoagulation agent, while the study group patients received warfarin and 100 μg of vitamin K in a single gelatin capsule from a single pharmacy. […] The study received clearance from the St. Mary's Medical Center Institutional Review Board, Galesburg, Ill.
An initial study interview was conducted and identified a patient's sex, age, indication for anticoagulation, and prescription and nonprescription medication usage. Those who were appropriate for study and provided consent were required to present to the clinic for once or twice weekly INR testing.
The control group (N=6) received their warfarin dosed by conventional tablet forms and presented to the office at least weekly for INR labs (more often if dosage changes were required).
The algorithm group (N=6) received their warfarin based upon an algorithm devised by the investigators to standardize the adjustments and the dosing of warfarin in smaller increments than those available in conventional dosages of oral medication (tablets). The algorithm specified dosages of warfarin other than those used by the manufacturer, in order for the prescribing physician to specify smaller incremental dosage changes than those permitted with the standard dosages available.
The purpose of having the algorithm group as a part of the study was to determine if the algorithm played a significant role in reducing nontherapeutic anticoagulation intervals. […] If a dosing adjustment was required due to a nontherapeutic INR, the dose of warfarin would be adjusted in a fixed increment and the time of the next INR set by reducing the interval.
The second theory behind the algorithm is that at the lower warfarin doses, the interval between easily taken amounts is a significant dose change. For example, the increase in dosage between 1 mg and 2 mg daily is a 100 percent dose increase. In comparison, the increase between the 4 mg tab and the 5 mg tab is a 25 percent dose increase. In order to create smaller dosage steps between doses of warfarin, the various available tablets were halved along their scoring lines and the appropriate amount was placed into a gelatin capsule for easy daily dosing. For instance, a dose of 1.75 mg warfarin required one-half of a 2.5 mg tablet and one-half of a 1 mg tab to be placed into a gelatin capsule. A cooperating compounding pharmacist placed the daily doses of warfarin into gelatin capsules for the use of the patients in the algorithm group.
The study group (N=12) received warfarin combined with 100 μg of vitamin K compounded into a gelatin capsule by the compounding pharmacist. The warfarin was dosed by the study algorithm, described above. Patients who randomized to this group received their current dose of warfarin along with the dose of vitamin K in the daily gelatin capsule. And as the INR fluctuated, the dose of warfarin was adjusted by the algorithm.
The combination of warfarin and vitamin K was accomplished by adding fixed amounts of each into an orally dosed form. The doses of warfarin used within the study protocol were (in milligrams): 0.5, 1, 1.25, 1.5, 1.75, 2.0, 2.25, 2.5, 2.75, 3.0, 3.25, 3.5, 3.75, 4.0, 4.5, 5.0, 5.5, 6.0, 6.5, 7.0, 7.5, 8.0, 8.5, 9.0, 9.5, 10, 11, 12, 13, 15.

[1] = algorithm only arm, average dose
[2] = combination capsule group (dosed by algorithm) or standard care group

**Q.** `CC(=O)CC(c1ccccc1)c1c(O)c2ccccc2oc1=O` (centres unmarked) [warfarin alone, 3-(_-acetonylbenzyl)-4-hydroxycoumarin] was tested. Which “variation from low to high doses of warfarin” value [1] did it give?
**A.** 25.3%

**Q.** And the “warfarin dose, low to high” value [1]?
**A.** 4.71-6.30 mgs

**Q.** And the “variation from low to high doses of warfarin” value [2]?
**A.** 36.9%

**Q.** What about the “warfarin dose, low to high” value [2] of the same compound?
**A.** 3.50-5.55 mgs

**Q.** And the “persons with a dosage change in their anticoagulation after a change in concomitant medical therapy” value (control and algorithm arms, includes two subjects who had this occur twice)?
**A.** Eight

**Q.** What about the “number of clinically safe anticoagulation levels (INR level between 2.0 and 3.0)” value (over six months, INR at least weekly, up to 35 INR measurements, combination group N=12 (100 μg vitamin K) vs control and algorithm groups combined, p=0.032) of the same compound?
**A.** 14.83

**Q.** And the “number of medically safe anticoagulation levels (INR level between 1.8 and 3.5)” value (over six months, INR at least weekly, combination group N=12 vs control and algorithm groups combined, p=0.048)?
**A.** 18.42

**Q.** What about the “number of medically unsafe INRs (INR less than 1.5 or greater than 4.9)” value (over six months, combination group N=12 vs control and algorithm groups combined, p=0.054, not significant) of the same compound?
**A.** 22.00
